The text below walks through data of patent US20220178931A1, “Sensor” (The University of Bristol, priority 2019, published 2022).

The nature of test [1]: DPH displacement from alpha-helical barrel, competitive inhibition assay, analyte beta-carotene. The settings on record: barrel incubated with DPH or TMA-DPH; analyte 0.05-300 μM; fluorescence; dash = no competitive binding observed; read-out: B-carotene K1. How it is done: (§1) The four analytes below were selected based on having hydrophobic properties and being able to adopt an elongate configuration, as these were postulated to have the best chance of displacing a reporter dye.
(§2) DPH was used as the reporter dye, and displacement of DPH was recorded using a standard competitive inhibition assay. In other words, the ability of an analyte to inhibit DPH binding was recorded by the inhibition constant Ki. Alpha-helical barrels were incubated with DPH, or its cationic variant 1-(4-trimethylammoniumphenyl)-6-phenyl-1,3,5-hexatriene p-toluenesulfonate (TMA-DPH). Analyte was added (0.05-300 μM) and the fluorescence signal measured.

The nature of test [2]: DPH displacement from alpha-helical barrel, competitive inhibition assay, analyte palmitic acid. The class given is binding. The settings on record: barrel incubated with DPH or TMA-DPH; analyte 0.05-300 μM; fluorescence; read-out: Palmitic acid K1. How it is done:
as §1, §2

The nature of test [3]: Prodan reporter dye binding to alpha-helical barrel lumen (fluorescence titration). The settings on record: for Kd: prodan 1 μM incubated with alpha-helical barrel 0.5-500 μM for up to 2 hours, fluorescent signal, dash = did not bind; for prodan binding to alpha-helical barrel (in words): summary of KD table. As to the method: (§3) The dyes 1,6-diphenyl-1,3,5-hexatriene (DPH) and 6-propionyl-2-dimethylaminonaphthalene (prodan) were assayed against a number of alpha-helical barrels to determine their dissociation constants, KD. DPH or prodan (1 μM) was incubated with varying concentrations of alpha-helical barrel (0.5-500 μM) for up to 2 hours, and the fluorescent signal measured at the corresponding emission wavelength.

The nature of test [4]: DPH displacement from alpha-helical barrel, competitive inhibition assay, analyte farnesol. The settings on record: barrel incubated with DPH or TMA-DPH; analyte 0.05-300 μM; fluorescence; dash = no competitive binding observed; read-out: Famesol K1. As to the method: as §1, §2
Test [5] is described as follows: DPH displacement from alpha-helical barrel, competitive inhibition assay, analyte retinol. The settings on record: barrel incubated with DPH or TMA-DPH; analyte 0.05-300 μM; fluorescence; read-out: Retinol K1. The class given is binding. How it is done: as §1, §2
Test [6] in a line: DPH reporter dye binding to alpha-helical barrel lumen (fluorescence titration). The conditions noted are these: DPH 1 μM incubated with alpha-helical barrel 0.5-500 μM for up to 2 hours; fluorescent signal. How it is done:
as §3

Take “GELKAIAQELKAIAKELKAIAWELKAIAQG [CC-Hex, 6 helices in barrel]”: the Ki in test [1] is over 300 µM; in test [2], 1 ± 0.3 µM; in test [4], 23.9 ± 2.4 µM; in test [5] it was 6.4 ± 3.2 µM. In addition, the values for the Kd in test [3] and in test [6] were over 500 µM and 7.1 ± 1.3 µM, respectively. Moreover, the “prodan binding to alpha-helical barrel (in words)” value in test [3] is “did not bind”.
“GEIAQALREIAKALREIAWALREIAQALRG [CC-Hept, 7 helices in barrel]”: the Ki in test [1] worked out at 12.1 ± 5.4 µM; in test [2] it was 0.9 ± 0.3 µM; in test [4] it was 0.6 ± 0.2 µM; in test [5], 4 ± 0.7 µM. In addition, the figures for the Kd in test [3] and in test [6] were 40.5 ± 4 µM and 8.9 ± 2.2 µM, respectively.
Take “GEIAKSLKEIAKSLKEIAWSLKEIAKSLKG [CC-Hex2, 6 helices in barrel]”: the Ki is over 300 µM in test [1], 1.1 ± 0.3 µM in test [2], 8.6 ± 1.3 µM in test [4] and 4.6 ± 1.9 µM in test [5]. The Kd in test [3] was determined as 39.2 ± 6.8 µM; in test [6], 9.5 ± 1.1 µM.
In the case of “GKIEQILQKIEKILQKIEWILQKIEQILQG [CC-Pent, alpha helix self-assembling into alpha-helical barrel]”, the Ki in test [1] is over 300 µM; in test [2] it was 1.1 ± 0.5 µM; in test [4] it was over 300 µM; in test [5], 14.8 ± 4.1 µM. Also, the results for the Kd in test [3] and in test [6] were over 500 µM and 22.4 ± 4.3 µM, respectively. The “prodan binding to alpha-helical barrel (in words)” value in test [3] was “did not bind”.
